Patent US10272182B2, “Copolymer membrane for high-dose chemotherapy delivery during transarterial chemoembolization” (THE REGENTS OF THE UNIVERSITY OF CALIFORNIA, priority 2014, dated 2019)

Experiment: Hepatic artery IAC infusion of dox in swine without CF device
Assay type: in vivo
Conditions: 50 mg dox (2 mg/mL) into the liver via hepatic artery over 10 minutes
Protocol: In vivo pilot experiments on swine were performed to establish an animal model and proof-of-concept for toxicity reduction. Farm swine (n=3, 30 kg) received humane care in compliance with the UCSF IACUC. Interventional procedures included anesthesia (Isoflurane), X-ray fluoroscopy, percutaneous transarterial catheterization of the hepatic artery, and percutaneous transveous catheterization of the vena cava. Heparin was […] in order to prevent thrombus formation. Heart rate, electrocardiogram, and O2-saturation were continuously monitored during the interventions. Animals were euthanized immediately after the procedures.
In the second animal, a CF device was not deployed, but rather a hepatic artery IAC infusion of dox was performed with subsequent sampling of blood at various times and positions throughout the venous system. This was performed in order to validate a hepatic dox IAC pharmacokinetic experimental model, measuring venous dox concentrations over time via a developed liquid chromatography-mass spectroscopy assay (Pacific Biolabs, Hercules, Calif.). In this animal, a microcatheter was advanced into the hepatic artery via standard access from a right femoral artery approach using fluoroscopy and contrast as needed. Via percutaneous UV access, central catheters were positioned with tips in the suprahepatic IVC and right hepatic vein. […]

- hemodynamic changes during the procedure: no hemodynamic changes
SMILES: COc1cccc2c1C(=O)c1c(O)c3c(c(O)c1C2=O)C[C@@](O)(C(=O)CO)C[C@@H]3O[C@H]1C[C@H](N)[C@H](O)[C@H](C)O1 [dox, doxorubicin]
